In EP0171441A1, “Prostaglandin analogues, processes for their preparation and compositions containing them” (ONO PHARMACEUTICAL CO., LTD., priority 1984, dated 1986):
Converted amounts (≈) assume the structure as drawn.

What follows are compounds tested on cells originated from human mouth tumor (KB-cells) (assay: Test on inhibition of proliferation using cells originated from human mouth tumor (KB-cells)). Settings: 96 h, stationary culture at 37°C for 4 days, Trypan Blue staining, surviving cell number relative to control.
Type: cell-based
Protocol: The cells originated from human mouth tumor (KB-cells) were added to Eagle's MEM culture solution containing 10% bovine fetal serum, the number of cells in the culture solution was adjusted to […] cells/ml, a solution in ethanol of the compound of the present invention was added to give a concentration of 5µg/ml or less (3 compounds) and the mixture subjected to stationary culture at 37°C for 4 days. As a control, a culture solution containing 0.1% of ethanol was similarly cultured. After the culture, the cells were
stained by the Trypan Blue staining method, and the surviving cell number was measured to determine the IC50 value from the degree of inhibition relative to the control. Compounds are identified by the Example (described hereinafter) in which they are prepared.

Structure (SMILES) | IC50 [mg/L]
CCCCCC=CC=C1C(=O)C=CC1CC=CCCCCOC(C)=O (stereo not drawn) [Compound 3, (5Z,14EZ)-1-0-acetyl-11-oxoprosta-5,9,12,14-tetraen-l-ol] | 1.6 (≈ 4.64 µM)
CCCCC[C@H](O)/C=C/[C@H]1C(=O)C=C[C@@H]1C/C=C\CCCCOC(N)=O [Compound 1(c)] | 1.1 (≈ 3.03 µM)
CCCCCC=CC=C1C(=O)C=C[C@@H]1C/C=C\CCCCO [Compound 2, (5Z,14EZ)-11-oxoprosta-5,9,12,14-tetraen-1-ol] | < 1
CCCCC[C@H](O)/C=C/[C@H]1C(=O)C[C@H](O)[C@@H]1C/C=C\CCCCOC(=O)C=C(C)C [Compound 1, 1-O-(3,3-dimethylacryloyl)-PGD2 alcohol] | 2.1 (≈ 4.99 µM)
